pIC50: −log10 of the molar value.
What follows are compounds tested against T1, MMP-2 (Gelatinase A) (Homo sapiens, UniProt P08253) (assay: biochemical). Details: read-out: IC50 MMP2.
T1 sequence (P08253 110-660): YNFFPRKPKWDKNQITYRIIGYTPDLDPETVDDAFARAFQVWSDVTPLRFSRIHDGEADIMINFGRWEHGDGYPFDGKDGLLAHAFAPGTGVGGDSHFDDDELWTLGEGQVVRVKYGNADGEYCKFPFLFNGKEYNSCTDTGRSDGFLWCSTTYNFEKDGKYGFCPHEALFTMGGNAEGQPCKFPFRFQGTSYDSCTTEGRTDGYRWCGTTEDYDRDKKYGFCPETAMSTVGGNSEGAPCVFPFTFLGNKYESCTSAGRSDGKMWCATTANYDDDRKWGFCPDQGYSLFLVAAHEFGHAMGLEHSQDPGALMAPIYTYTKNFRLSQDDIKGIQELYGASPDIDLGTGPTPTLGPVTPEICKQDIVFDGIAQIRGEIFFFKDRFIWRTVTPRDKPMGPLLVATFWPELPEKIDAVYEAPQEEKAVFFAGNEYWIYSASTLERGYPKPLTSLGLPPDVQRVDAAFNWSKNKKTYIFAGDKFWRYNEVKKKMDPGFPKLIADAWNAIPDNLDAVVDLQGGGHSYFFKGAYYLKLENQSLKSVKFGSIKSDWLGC
Description: (§1) The assays measure the amount by which a test compound reduces the hydrolysis of a thiopeptolide substrate caused by a matrix metalloproteinase enzyme.
(§2) Thiopeptolide substrates show virtually no decomposition or hydrolysis in the absence of a matrix metalloproteinase enzyme. A typical thiopeptolide substrate commonly utilized for assays is Ac-Pro-Leu-Gly-thioester-Leu-Leu-Gly-O Et. […] Assays are carried out with and without matrix metalloproteinase inhibitor compounds, and the amount of hydrolysis is compared for a determination of inhibitory activity of the test compounds.

SMILES | pIC50
O=C(Cc1ccccc1)N[C@@H](CC(=O)c1ccc2oc3ccccc3c2c1)C(=O)O [(S)-4-Dibenzofuran-2-yl-4-oxo-2-phenylacetylamino-butyric acid] | 7.08

Each compound was assayed against MMP-3 (stromelysin) (Homo sapiens, UniProt P08254) (assay: biochemical). Details: read-out: IC50 MMP3.
Type: biochemical
Description: as §1, §2

MMP-3 (stromelysin), sequence (P08254 100-477): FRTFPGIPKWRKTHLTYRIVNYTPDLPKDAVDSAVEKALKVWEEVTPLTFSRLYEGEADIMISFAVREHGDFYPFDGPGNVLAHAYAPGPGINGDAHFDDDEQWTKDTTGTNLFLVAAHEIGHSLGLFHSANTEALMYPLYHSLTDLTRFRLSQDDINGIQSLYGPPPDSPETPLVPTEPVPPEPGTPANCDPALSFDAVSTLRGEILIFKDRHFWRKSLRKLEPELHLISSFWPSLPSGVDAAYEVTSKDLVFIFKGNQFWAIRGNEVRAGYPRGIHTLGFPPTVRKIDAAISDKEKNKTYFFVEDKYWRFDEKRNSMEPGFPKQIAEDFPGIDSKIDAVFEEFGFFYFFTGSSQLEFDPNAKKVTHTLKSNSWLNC

SMILES | pIC50
CN(C)N=C(CCC(=O)O)c1ccc(-c2ccc(Cl)cc2)cc1 [4-(4'-Chloro-biphenyl-4-yl)-4-(dimethylhydrazono)-butyric acid] | 6.03
O=C(Cc1ccccc1)N[C@@H](CC(=O)c1ccc2oc3ccccc3c2c1)C(=O)O [(S)-4-Dibenzofuran-2-yl-4-oxo-2-phenylacetylamino-butyric acid] | 6.48
O=C(O)CCC(=NO)c1ccc(-c2ccc(Cl)cc2)cc1 [4-(4'-Chloro-biphenyl-4-yl)-4-hydroxyimino-butyric acid] | 6.92
O=C(O)CCC(=NO)c1ccc(-c2ccc(Br)cc2)cc1 [4-(4'-Bromo-biphenyl-4-yl)-4-hydroxyimino-butyric acid] | 6.96
O=C(O)CCC(O)c1ccc(-c2ccc(Cl)cc2)cc1 (racemic) [(±)-4-(4'-Chloro-biphenyl-4-yl)-4-hydroxy-butyric acid] | 6.55
CC(C)CC(CC(=O)NO)C(=O)N[C@@H](CC(C)C)C(=O)N[C@@H](Cc1ccccc1)C(N)=O (stereo partly shown) [Compound U24522, reference compound] | 7.70

Reference: US5948780A, “Method for treating and preventing heart failure and ventricular dilatation” (priority 1997, dated 1999)
